Laboratory results published in EP0019589A1, “Tripeptide derivatives and their use in a process for determining enzymes” (Pentapharm A.G., priority 1979, dated 1980).
Non-standard residues stand in square brackets, D forms with d. Residues, ends and D or L forms follow the SMILES beside them. *: point of attachment. Cha = N[C@@H](CC1CCCCC1)C(=O)O; dCha = N[C@H](CC1CCCCC1)C(=O)O; dChg = N[C@@H](C(=O)O)C1CCCCC1; dPhg = N[C@@H](C(=O)O)c1ccccc1; pNA = O=[N+]([O-])c1ccc(N*)cc1; Phg = N[C@H](C(=O)O)c1ccccc1; Pip = O=C(O)[C@@H]1CCCCN1; dNva = CCC[C@@H](N)C(=O)O; Nle = CCCC[C@H](N)C(=O)O

Assays:
Assay type in all cases: biochemical
Urinkallikrein = target: T1, Urinkallikrein (Homo sapiens, UniProt P06870); test: Cleavage of chromogenic substrate by urinary kallikrein in human urine; details: 1 ml human urine (pooled morning urine of healthy persons), per min; Substratkonzentration 2 x 10^-4 molar
T1 construct: 1 ml Urin und 1 ml TRIS-Imidazol-Puffer mit pH 7,9; from tissue; host or cells: human urine

[1] = target: T2, Submandibularis-Kallikrein (Homo sapiens, UniProt P06870); test: Cleavage of chromogenic substrate by submandibular (glandular) kallikrein in human sputum; details: 1 ml human sputum, per min; Substratkonzentration 2 x 10^-4 molar
T2 construct: Man mischt 0,5 ml Sputum mit 2 ml TRIS-Imidazol-Puffer; from tissue; host or cells: human sputum
Summary of the method: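 Sputum mixed with TRIS-imidazole buffer (ionic strength 1.0), preincubated 5 min at 37°C and centrifuged; supernatant incubated with aqueous substrate solution (2 x 10^-3 M, stock). p-Nitroaniline release followed continuously at 405 nm for 5-10 min; activity expressed as mU per ml sputum from ΔOD/min.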

Humanplasmin = target: T3, Humanplasmin (Homo sapiens, UniProt P00747); test: Cleavage of chromogenic substrate by human plasmin; details: 1 CU-Einheit human plasmin, per min; Substratkonzentration 2 x 10^-4 molar
T3 construct: da bei der Aktivierung aus 1 Molekül Plasminogen 1 Molekül Plasmin entsteht

Humanthrombin = target: T4, Humanthrombin (Homo sapiens, UniProt P00734); test: Cleavage of chromogenic substrate by human NIH thrombin; details: 1 NIH-Einheit human thrombin, per min; Substratkonzentration 2 x 10^-4 molar
T4 construct: Humanplasmin und hu-manem NIH-Thrombin
Summary of the method: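 Thrombin hydrolysis of chromogenic p-nitroanilide substrate read spectrophotometrically at 405 nm; fluorogenic naphthylamine, methylcoumarylamine or di(methoxycarbonyl)phenylamine substrates read continuously by fluorescence emission at 400-470 nm. Activity taken as product formed per unit time; 1 µmol product/min defined as 1 enzyme unit for a given substrate.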

T3 sequence (P00747 581-810 limits assumed): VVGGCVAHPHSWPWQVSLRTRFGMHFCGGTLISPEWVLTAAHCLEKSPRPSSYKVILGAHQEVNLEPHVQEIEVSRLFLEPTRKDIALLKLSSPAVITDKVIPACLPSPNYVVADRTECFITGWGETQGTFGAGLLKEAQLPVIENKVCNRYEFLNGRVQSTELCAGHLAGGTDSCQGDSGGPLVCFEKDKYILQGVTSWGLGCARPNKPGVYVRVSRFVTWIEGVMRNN
T3 sequence (P00747 97-580 partner limits assumed): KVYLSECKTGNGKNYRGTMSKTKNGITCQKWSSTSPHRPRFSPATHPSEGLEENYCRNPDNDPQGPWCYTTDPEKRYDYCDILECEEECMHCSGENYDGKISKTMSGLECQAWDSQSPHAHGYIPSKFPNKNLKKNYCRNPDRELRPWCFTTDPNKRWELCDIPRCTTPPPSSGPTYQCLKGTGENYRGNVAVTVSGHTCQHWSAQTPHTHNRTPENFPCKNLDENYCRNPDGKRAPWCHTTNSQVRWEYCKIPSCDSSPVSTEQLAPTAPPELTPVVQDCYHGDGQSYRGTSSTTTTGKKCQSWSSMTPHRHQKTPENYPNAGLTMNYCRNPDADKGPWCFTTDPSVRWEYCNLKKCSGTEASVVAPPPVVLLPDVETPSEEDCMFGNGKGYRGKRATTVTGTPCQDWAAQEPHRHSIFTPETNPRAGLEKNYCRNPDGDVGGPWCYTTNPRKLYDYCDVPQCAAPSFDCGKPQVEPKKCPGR
T1 sequence (P06870 25-262): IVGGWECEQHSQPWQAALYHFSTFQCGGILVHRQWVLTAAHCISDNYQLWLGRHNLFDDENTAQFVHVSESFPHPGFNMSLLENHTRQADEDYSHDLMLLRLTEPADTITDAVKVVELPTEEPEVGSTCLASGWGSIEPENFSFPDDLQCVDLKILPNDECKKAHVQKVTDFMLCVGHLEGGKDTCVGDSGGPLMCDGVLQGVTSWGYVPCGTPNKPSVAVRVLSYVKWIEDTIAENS
T2 sequence (P06870 25-262): as above

| Compound | Menge des durch 1 ml Humanurin pro Min. freigesetzten Spaltproduktes R-NH2 in Nanomol (Urinkallikrein) (Urinkallikrein) | Menge des durch 1 ml Humansputum pro Min. freigesetzten Spaltproduktes R-NH2 in Nanomol (Submandibularis-Kallikrein) [1] | Menge des durch 1 CU-Einheit Humanplasmin pro Min. freigesetzten Spaltproduktes R-NH2 in Nanomol (Humanplasmin) (Humanplasmin) | Menge des durch 1 NIH-Einheit Thrombin pro Min. freigesetzten Spaltproduktes R-NH2 in Nanomol (Humanthrombin) (Humanthrombin) |
| --- | --- | --- | --- | --- |
| CCC[C@@H](N)C(=O)N[C@H](C(=O)N[C@@H](CCCNC(=N)N)C(=O)Nc1ccc([N+](=O)[O-])cc1)c1ccccc1 [Beispiel 54, 2HBr.H-D-Nval-Ph'Gly-Arg-pNA] (H-[dNva]-[Phg]-Arg-pNA) | 0,58 Nanomol | 22,9 Nanomol | 382 Nanomol | 19,2 Nanomol |
| N=C(N)NCCC[C@H](NC(=O)[C@@H]1CCCCN1C(=O)[C@H](N)C1CCCCC1)C(=O)Nc1ccc([N+](=O)[O-])cc1 [Beispiel 65, 2HBr.H-D-CHG-Pip-Arg-pNA] (H-[dChg]-[Pip]-Arg-pNA) | 1,92 Nanomol | 14,2 Nanomol | 259 Nanomol | 142,5 Nanomol |
| N=C(N)NCCC[C@H](NC(=O)[C@@H]1CCCCN1C(=O)[C@H](N)CC1CCC(O)CC1)C(=O)Nc1ccc([N+](=O)[O-])cc1 (stereo partly drawn) [Beispiel 28, 2HBr.H-D-CHT-Pip-Arg-pNA] | 0 Nanomol | 9,9 Nanomol | 122 Nanomol | 80,4 Nanomol |
| CCC[C@@H](N)C(=O)N[C@@H](CC1CCCCC1)C(=O)N[C@@H](CCCCN)C(=O)Nc1ccc([N+](=O)[O-])cc1 [Beispiel 71, 2HBr.H-D-Nval-CHA-Lys-pNA] (H-[dNva]-[Cha]-Lys-pNA) | 1,87 Nanomol | 18,04 Nanomol | 655 Nanomol | 6,9 Nanomol |
| N=C(N)NCCC[C@H](NC(=O)[C@H](Cc1ccccc1)NC(=O)[C@H](N)c1ccccc1)C(=O)Nc1ccc([N+](=O)[O-])cc1 [Beispiel 63, 2HBr.H-D-Ph'Gly-Phe-Arg-pNA] (H-[dPhg]-Phe-Arg-pNA) | 0,42 Nanomol | 7,0 Nanomol | 841 Nanomol | 2,4 Nanomol |
| N=C(N)NCCC[C@H](NC(=O)[C@H](Cc1ccc(O)cc1)NC(=O)[C@H](N)c1ccccc1)C(=O)Nc1ccc([N+](=O)[O-])cc1 [Beispiel 47, 2HBr.H-D-Ph'Gly-Tyr-Arg-pNA] (H-[dPhg]-Tyr-Arg-pNA) | 0,19 Nanomol | 7,0 Nanomol | 818 Nanomol | 1,0 Nanomol |
| N=C(N)NCCC[C@H](NC(=O)[C@H](Cc1ccccc1)NC(=O)[C@H](N)CC1CCCCC1)C(=O)Nc1ccc([N+](=O)[O-])cc1 [Beispiel 64, 2HBr.H-D-CHA-Phe-Arg-pNA] (H-[dCha]-Phe-Arg-pNA) | 0,5 Nanomol | 9,7 Nanomol | 1261 Nanomol | 25,8 Nanomol |
| N=C(N)NCCC[C@H](NC(=O)[C@@H]1CCCCN1C(=O)[C@H](N)CC1CCCCC1)C(=O)Nc1ccc([N+](=O)[O-])cc1 [Beispiel 66, 2HBr.H-D-CHA-Pip-Arg-pNA] (H-[dCha]-[Pip]-Arg-pNA) | 0,53 Nanomol | 9,8 Nanomol | 228 Nanomol | 114,2 Nanomol |
| N=C(N)NCCC[C@H](NC(=O)[C@H](CC1CCCCC1)NC(=O)[C@H](N)c1ccccc1)C(=O)Nc1ccc([N+](=O)[O-])cc1 [Beispiel 18, 2HBr.H-D-Ph'Gly-CHA-Arg-pNA] (H-[dPhg]-[Cha]-Arg-pNA) | 0,67 Nanomol | 8,5 Nanomol | 1200 Nanomol | 4,53 Nanomol |
| N=C(N)NCCC[C@H](NC(=O)[C@H](Cc1ccc(O)cc1)NC(=O)[C@H](N)C1CCCCC1)C(=O)Nc1ccc([N+](=O)[O-])cc1 [Beispiel 42, 2HBr.H-D-CHG-Tyr-Arg-pNA] (H-[dChg]-Tyr-Arg-pNA) | 0,49 Nanomol | 3,9 Nanomol | 969 Nanomol | 2,0 Nanomol |
| C[C@@H](N)C(=O)N[C@@H](CC1CCCCC1)C(=O)N[C@@H](CCCNC(=N)N)C(=O)Nc1ccc([N+](=O)[O-])cc1 [Beispiel 40, 2HBr.H-D-Ala-CHA-Arg-pNA] (H-[dA]-[Cha]-Arg-pNA) | 1,73 Nanomol | 22,4 Nanomol | 433 Nanomol | 1,5 Nanomol |
| NCCCC[C@H](NC(=O)[C@H](CC1CCCCC1)NC(=O)[C@H](N)c1ccccc1)C(=O)Nc1ccc([N+](=O)[O-])cc1 [Beispiel 33, 2AcOH.H-D-Ph'Gly-CHA-Lys-pNA] (H-[dPhg]-[Cha]-Lys-pNA) | 0,10 Nanomol | 0,9 Nanomol | 837 Nanomol | 0,4 Nanomol |
| CCCC[C@H](NC(=O)[C@H](N)CC1CCCCC1)C(=O)N[C@@H](CCCNC(=N)N)C(=O)Nc1ccc([N+](=O)[O-])cc1 [Beispiel 68, 2HBr.H-D-CHA-Nleu-Arg-pNA] (H-[dCha]-[Nle]-Arg-pNA) | 0,45 Nanomol | 15,0 Nanomol | 899 Nanomol | 77,6 Nanomol |
| CC(C)C[C@H](NC(=O)[C@H](N)CC1CCC(O)CC1)C(=O)N[C@@H](CCCNC(=N)N)C(=O)Nc1ccc([N+](=O)[O-])cc1 (stereo partly drawn) [Beispiel 51, 2HBr.H-D-CHT-Leu-Arg-pNA] | 0,33 Nanomol | 11,7 Nanomol | 596 Nanomol | 58,1 Nanomol |
| CC(C)C[C@H](NC(=O)[C@H](N)C1CCCCC1)C(=O)N[C@@H](CCCCN)C(=O)Nc1ccc([N+](=O)[O-])cc1 [Beispiel 21, 2HBr.H-D-CHG-Leu-Lys-pNA] (H-[dChg]-Leu-Lys-pNA) | 0,40 Nanomol | 2,2 Nanomol | 460 Nanomol | 1,20 Nanomol |
| CC(C)C[C@H](NC(=O)[C@H](N)c1ccccc1)C(=O)N[C@@H](CCCNC(=N)N)C(=O)Nc1ccc([N+](=O)[O-])cc1 [Beispiel 26, 2HBr.H-D-Ph'Gly-Leu-Arg-pNA] (H-[dPhg]-Leu-Arg-pNA) | 0,19 Nanomol | 8,3 Nanomol | 194 Nanomol | 0,8 Nanomol |
| N=C(N)NCCC[C@H](NC(=O)[C@H](Cc1ccc(O)cc1)NC(=O)[C@H](N)Cc1ccccc1)C(=O)Nc1ccc([N+](=O)[O-])cc1 [Beispiel 46, 2HBr.H-D-Phe-Tyr-Arg-pNA] (H-[dF]-Tyr-Arg-pNA) | 0,26 Nanomol | 6,1 Nanomol | 843 Nanomol | 2,6 Nanomol |
